In US20230002344A1, “NOVEL BENZOTHIOPHENE DERIVATIVES AND USE THEREOF FOR STIMULATING MITOCHONDRIAL TURNOVER” (NIBN, The National Institute For Biotechnology In The Negev …, priority 2019, published 2023):

Legend:
Assay type in all cases: cell-based
INS1 cells [1] = assay: Mitochondrial mass by Mitotracker green staining; conditions: 18 h; SPB08007 25 μM, MWP00839 11.5 μM, Urolithin A 25 μM
Experimental: The Z-score depicts the standard deviation from the neutral control (DMSO). In FIG. 3C: Mitochondrial mass in INS1 cells treated for 18 hours with either DMSO (control), Urolithin A (25 μM), SPB08007 (“SBP”) (25 μM) or MWP00839 (“MWP”) (11.5 μM) and then stained with Mitotracker green (200 nM). In FIG. 3D: SPB08007 and MWP00839 increase the number of mitochondria inside autolysosomes. INS1 cells expressing mCherry-GFP were exposed to SPB08007, MWP00839, and DMSO for 8 hours and then subjected to confocal microscopy. The area of red fluorescence in the taken images was determined. N=3+/−SEM pANOVA<0.05. FIG. 3E provides representative images. […] FIG. 3F provides the Western blot against LC3 in INS1 cells treated with the compounds in presence or absence of bafilomycin (+b) for the last 2 hours.
Mitotracker Green Fluorescence, Anion Radical Superoxide and Mitochondrial Membrane Potential. INS1 cells were seeded into wells of a 96-wells glass bottom cell culture plate (CELLSTAR) at a density of 2*10^4 cells/well. To assess mitochondrial clearance, a pulse-chase experiment was performed. […] Results are expressed as the percentage of MTG fluorescence relative to MTG fluorescence of the “time 0” control. […] Integrated fluorescence of each field was analyzed in Image J after background subtraction and threshold (IsoData) application. Twenty-four fields of each condition were analyzed in each experiment.

INS1 cells [2] = assay: Mitotracker Green pulse-chase (mitochondrial clearance); conditions: 25 uM, 18 h after MTG pulse
Experimental: FIGS. 8A-E show the effect of two hit compounds on mitophagy confirmed by other methods. […] Cells were imaged using a 63× Plan Neofluar objective and the Airyscan module of a Zeiss LSM880 confocal microscope. […] Data are normalized by DMSO. […] After 18 h, cells were imaged. As control, cells were loaded with MTG 30 min prior imaging—time “0” (100% MTG staining). Cells were imaged using a 40× lens of a Perkin Elmer Operetta high-content imaging system microscope (FIG. 8D). […] Each experiment was repeated three times. For mCherry-GFP-FIS1101-152 assay, 59-85 cells of each group were analyzed in each experiment and for MTG pulse-chase assay, 45 fields were analyzed in each experiment. Values of *p<0.05 vs. DMSO, #p<0.05 vs. “time 0”.
Mitotracker Green Fluorescence, Anion Radical Superoxide and Mitochondrial Membrane Potential. […] Results are expressed as the percentage of MTG fluorescence relative to MTG fluorescence of the “time 0” control. […] Integrated fluorescence of each field was analyzed in Image J after background subtraction and threshold (IsoData) application. Twenty-four fields of each condition were analyzed in each experiment.
A second fluorescence technique, Mitotracker Green (MTG) “pulse-and-chase” (FIG. 8 C-E), was utilized to confirm faster mitochondrial clearance upon treatment with SPB08007 and MWP00839. […]

INS1 cells [3] = assay: Western blot for mitochondrial proteins; conditions: 24 h
Experimental: INS1 cells expressing Mitotimer under EF-1 alpha promoter were treated for 18 hours with rapamycin (100 nM). […] FIGS. 2B and 2C show a Western blot for mitochondrial proteins upon treatment with rapamycin. Note that rapamycin increased mitochondrial mass.
Cell treatments and mitochondrial extraction. INS1 cells were treated with SBP08007 or MWP00839 25 uM for 24 h. Mitochondrial and cytosolic fractions from INS1 cells were performed by using the Mitochondria Isolation Kit for Cultured Cells (Pierce). INS1 cells were lysed in a hypotonic buffer (10 mM NaCl, 1.5 mM MgCl2, and 10 mM Tris.HCl, pH 7.5), and mitochondria were extracted in a Dounce homogenizer in mitochondrial buffer (1 mM EDTA, 210 mM mannitol, 70 mM sucrose, and 5 mM Tris.HCl, 7.5), followed by centrifugation at 1,300×g for 10 min at 4° C. The supernatant was further centrifuged at 17,000×g for 15 min at 4° C. to pellet the mitochondria. The crude mitochondrial fraction was resuspended for washing and centrifuged at 17,000×g for 15 min at 4° C. The pellets were collected as the mitochondrial fraction.
Western blot. Cell lysates were diluted in Laemmli sample buffer (100 mM Tris-HCl, 2% SDS, 10% glycerol, 0.1% bromophenol blue) containing 5% beta-mercaptoethanol. After heating at 95° C. for 5 min, proteins were separated by SDS-PAGE previously added of Stain Free reagent (BioRad), and transferred onto PVDF membranes. Membranes were blocked with 5% non-fat milk and detection of individual proteins was carried out by blotting with specific primary antibodies against ubiquitin (Calbiochem 1:1,000). Chemiluminescence detection using a secondary peroxidase-linked anti-rabbit (Calbiochem; 1:10,000) and a detection system from Pierce KLP (Rockford, Ill., USA) was performed. Stain free total protein labeling was imaged in Image Lab 6.0 Software (BioRad), which was used for quantification of the mitochondria and normalization to total protein staining.

INS1 cells [4] = assay: Mitochondrial morphology (aspect ratio, circularity); conditions: 25 uM, 24 h
Experimental: INS1 cells were treated with SPB08007 (25 uM) or DMSO (0.1%) for 24 h. Mitochondria were stained with Mitotracker Green and TMRE (images represented in FIG. 10). MTG fluorescence was used to calculate Aspect Ratio (AR) (FIG. 16A) and circularity (FIG. 16B) of mitochondrial structures.

Question: What does the source list for CC(=O)N/C(=C\c1sc2ccccc2c1C)C(=O)O [SPB08007]?
Answer: mitochondrial mass (mitotracker green fluorescence) (INS1 cells [1]): reduction in fluorescence; MTG intensity after pulse-chase (INS1 cells [2]): lower MTG intensity compared to DMSO; CI-NDFUB8 levels (INS1 cells [3]; 25 uM): unaffected; SDHB (Complex II) protein level increase (INS1 cells [3]; 25 uM, relative to DMSO): 2 fold; UQCRC2 (Complex III) protein level increase (INS1 cells [3]; 25 uM, relative to DMSO): 1.5 fold; overall mitochondrial protein (INS1 cells [3]): reduces; mitochondrial morphology (INS1 cells [4]): does not alter
